Test [1] concerns human uterine cervical cancer cells. Description: Apoptosis test with or without radiation. In kind it is cell-based. Conditions: 5 μg/ml in combination with radiation, FIG. 17. The method, then: (§1) (1) Each 5 ml of 20 μg/ml of phytosphingosine and derivatives thereof were added to human lung cancer cell-containing dishes. Some cells were cultured without radiation and others were cultured with radiation with dose of 4 Gy. This apoptosis test was carried out in the same manner in the Experiment 1. Specimens used in this apoptosis test are as follows:
(§2) Control (Cont), IR, PS, PS+IR, C4PS, C4PS+IR, C6PS, C6PS+IR, C8PS, C8PS+IR, C12PS, C12PS+IR.
(§3) (2) Apoptosis tests for human blood cancer cells, uterine cervical cancer cells, and breast cancer cells were carried out in the same manner as in the above (1) except using 5 μg/ml of phytosphingosine and derivatives thereof.

The subject of test [2] is human breast cancer cells. Description: Apoptosis test with or without radiation. The test is classed as cell-based. To be noted: 5 μg/ml in combination with radiation, FIG. 17. The method, then:
as §1, §2, §3

Test [3] has as its system human uterine cervical cancer cells. Nature of the test: In vivo animal test, tumor size with radiotherapy. On the set-up: species or system nude mice. To be noted: for tumor size, compound alone treated group: after 7 days (rapidly increased until 7 days after the treatment); for tumor size, radiation and compound concurrent treated group: as a function of days; for tumor size, concurrent treatment vs radiation or compound alone: with radiation, FIGS. 24 and 25. The method, then:
(§4) Nude mice (body weight: about 20 g) were randomized into 4 groups and the femoral region of the nude mice transplanted with human lung cancer cells. Then, tumor volume was allowed to reach a level of […]. One group had untreated cells as a control and a second group had radiation (dose of 20 Gy)-treated cells. A third group was orally administered with 50 mg/kg of an olive oil for one week on a daily basis, followed by radiotherapy (dose of 20 Gy). A fourth group was orally administered with a 50 mg/kg solution of phytosphingosine in an olive oil for one week on a daily basis, followed by radiotherapy (dose of 20 Gy). Tumor volume was measured at intervals of 3 days for 40 days. […] In case of a C8PS alone treated group, the tumor size increased until 10 days after the treatment. […] Meanwhile, tumor growth was suspended at a certain point of time after C8PS alone treatment. It can be seen from this fact that C8PS is useful by itself as an anticancer agent for inhibiting tumor growth.
The animal tests were carried out using nude mice of which the femoral regions were transplanted with human uterine cervical cancer cells in the same manner as the aforementioned animal test using C8PS.

The test system is the same in test [4]. Description: Colony formation test in combination with radiation. In kind it is cell-based. Conditions: FIG. 18. Here is the method:
(§5) Colony formation tests were carried out in human lung cancer cells, breast cancer cells, and uterine cervical cancer cells as follows:
(§6) Respective sphingosine, phytosphingosine, C6PS, and C8PS were dissolved ethanol to produce specimens. About 600 cells (for each cancer) were plated in a dish with a diameter of 60 mm and incubated in a CO2 incubator at 37° C. for a day. Then, the cancer cells were treated with the specimens in combination with radiation and were continuously cultured. When suitable colonies were formed, the cancer cells were fixed with a fixing solution (methanol/acetic acid=3:1) and stained with trypan blue. Then, the number of the colonies was counted and the results were evaluated in a comparative manner.

The test system of test [5] is human lung cancer cells. The description is as above. In kind it is cell-based. To be noted: for sensitizer enhancement ratio (SER): in combination with radiation. Here is the method: as §5, §6
Test [6] concerns human breast cancer cells. The description is as above. In kind it is cell-based. To be noted: FIG. 18. The method, then:
as §5, §6

Test [7] relates to human lung cancer cells (NCI-H460). Description: Apoptosis test (Sub G1, propidium iodide, flow cytometry). In kind it is cell-based. Conditions: 5 μg/ml, culture time of 48 hours, FIG. 2. The method, then:
Cancer cells as used in the experiment were human lung cancer cells (NCI-H460, Korean Cell Line Bank), human breast cancer cells (MDA-MB-231, American Type Culture Collection (ATCC)), human uterine cervical cancer cells (HeLa, Korean Cell Line Bank), and blood cancer cells (Jurkat, ATCC). These cancer cells were cultured in RPMI 1640 media containing 10% FBS, penicillin, and streptomycin (GIBCO BRL).
The apoptosis tests were carried out at human lung cancer cells, breast cancer cells, uterine cervical cancer cells, and blood cancer cells as follows:
Phytosphingosine or a derivative thereof was dissolved in DMSO. Samples of the resultant solution of different concentration levels (1, 2, 5, 10, 15, 20 μg/ml) were prepared. According to the following treatment schedule, phytosphingosine treated cancer cells were cultured, washed with PBS (phosphate buffered saline), and fixed with 70% ethanol. The fixed cells were again washed with PBS, suspended in PBS, and 1 mg/ml of RNase was added thereto. Then, DNA was stained with 50 μg/ml of propidium iodide fluorescent dye and the change in the Sub G1 was analyzed by flow cytometry (Becton DICKINSON). The Sub G1, a marker of apoptotic cell death, means DNA distribution lower than that in the G1 phase of cell cycle.
(1-1) In order to determine an anticancer effect of phytosphingosine, 5 ml of 10 μg/ml of phytosphingosine was added to respective dishes containing lung cancer cells, breast cancer cells, uterine cervical cancer cells, and blood cancer cells.
(1-2) In order to examine a correlation of an anticancer effect with the phytosphingosine concentration and post-treatment culture time, each 5 ml of 2, 5, 10, and 15 μg/ml of phytosphingosine was added to respective human uterine cervical cancer cell-containing dishes and human breast cancer cell-containing dishes. In addition, each 5 ml of 5, 10, 15, and 20 μg/ml of phytosphingosine was added to respective human lung cancer cell-containing dishes, and each 5 ml of 1, 5, 10, and 20 μg/ml of phytosphingosine was added to respective human blood cancer cell-containing dishes.
(1-3) An anticancer effect of phytosphingosine derivatives was determined in the same manner as mentioned in (1-1) and (1-2) except using 5 μg/ml of C4PS, C6PS, C8PS, and C12PS.

The subject of test [8] is human lung cancer cells. Nature of the test: DAPI staining (percentage of apoptotic cells). In kind it is cell-based. Conditions: 20 μg/ml C8PS with radiation. The method, then:
(§7) Human lung cancer cells were cultured in the same manner as in Experiment 1 and injected with 5 ml of 20 μg/ml of C8PS. Then, the DAPI staining and DNA fragmentation were carried out.
DAPI staining protocol was as follows:
First, a control cell group, a radiation-treated cell group, a C8PS-treated cell group, and a C8PS and radiation concurrent treated cell group were fixed with 4% paraformaldehyde at room temperature for 30 minutes and washed with PBS. 50 ng/ml of a DAPI solution was added to the fixed cell groups and incubated for 30 minutes. Then, the cell groups were again washed with PBS and examined with a fluorescent microscope. Cellular apoptosis is characterized by condensation and fragmentation of cell nuclei. Based on this fact, apoptotic cells were counted in each group. Then, the number of apoptotic cells was divided by the number of total cells to derive the percentage of apoptotic cells in each group.

Test [9] has as its system human lung cancer cells. Nature of the test: In vivo animal test, tumor volume with radiotherapy (20 Gy). On the set-up: species or system nude mice. The method, then: as §4
The test system of test [10] is human lung cancer cells. Nature of the test: Apoptosis test with or without radiation (4 Gy). Conditions: 20 μg/ml, FIG. 13. The test is classed as cell-based. The method, then: as §1, §2
The test system of test [11] is human lung cancer cells. Nature of the test: DNA fragmentation (agarose gel electrophoresis). In kind it is cell-based. Conditions: 20 μg/ml C8PS with radiation, FIG. 20. The method, then: as §7
DNA fragmentation was carried out as follows:
C8PS-treated human lung cancer cells were dissolved in a lysis buffer (20 mM Tris/HCl, pH 8.0, 0.1 mM EDTA, 1% SDS and 0.5 mg/ml proteinase K) and treated with a mixture of phenol, chloroform, and isoamylalcohol (phenol/chloroform/isoamylalcohol=25:24:1) to thereby give a chromosomal DNA extract. The chromosomal DNA extract was subjected to 1% agarose gel electrophoresis and the resulting DNA fragments were visualized under an UV light.

Where only a bound is given, the exact number is not on record here.

Consider `CCCCCCCCCCCCCC[C@@H](O)[C@@H](O)[C@H](CO)NC(=O)CCCCC` [C6PS, N-hexanoyl phytosphingosine], for which the “enhancement of radiosensitizing effect” value in test [1] and in test [2] was “excellent” each time. For the same compound, the “tumor size, compound alone treated group” value in [3] is listed as “slowly increased”. Moreover, the “tumor size, radiation and compound concurrent treated group” value in [3] was “showed little changes”. Also, in test [3], the “tumor size, concurrent treatment vs radiation or compound alone” value was “significant reduction in tumor size”. Moreover, the results for the “sensitizer enhancement ratio (SER)” value (in test [4]; with human lung cancer cells [5] (FIG. 12); in [6]) were 2.67, 1.6 and 2.40, respectively. In [7], this compound showed an apoptotic rate of about 100%.

In the case of `CCCCCCCCCCCCCC[C@@H](O)[C@@H](O)[C@H](CO)NC(=O)CCCCCCC` [C8PS, N-octanoyl phytosphingosine], the “apoptotic rate, concurrent treatment vs radiation or C8PS alone” value in the test on human lung cancer cells [8] (FIG. 19) is “higher apoptotic rate”. Besides, in the test on human lung cancer cells [8] (as a function of time, FIG. 21), the “increase of apoptotic rate, concurrent treatment vs radiation or C8PS alone” value is reported as at least 20%. In addition, the “tumor volume, concurrent treatment vs radiation or C8PS alone” value in the test with human lung cancer cells [9] (50 mg/kg oral daily for one week then radiotherapy 20 Gy, FIG. 22) is on record as “significantly reduced”. Also, the “size of initial tumor, radiation and C8PS concurrent treated group” value with human lung cancer cells [9] (50 mg/kg oral daily for one week then radiotherapy 20 Gy, FIG. 23) is “maintained or reduced”. Besides, in the test with human lung cancer cells [9] (after the 10th day after treatment (increased until 10 days), FIG. 23), the “tumor size, C8PS alone treated group” value was “showed little changed”. In the test on human lung cancer cells [10], the “apoptotic effect of concurrent application with radiation” value was “excellent apoptotic effect”. In addition, in the test on human lung cancer cells [11], the “chromosomal DNA fragmentation, concurrent treatment vs radiation or C8PS alone” value is reported as “remarkably increased”. For the same compound, in the test on human lung cancer cells [5] (FIG. 12), the radiosensitivity result is reported as “excellent radiosensitivity” and the “sensitizer enhancement ratio (SER)” value is 2. Moreover, the “increase of radiosensitivity relative to Taxol” value with human lung cancer cells [5] (at LD50 of human lung cancer cells, FIG. 14B) is on record as at least 20%. Further, in the test with human lung cancer cells [5] (radiation at LD50 (number of colonies reduced to 50% by radiation alone), FIG. 14A), the “increase of apoptotic rate, concurrent treatment vs radiation alone” value is given as “about 30%”.

Consider `CCCCCCCCCCCCCC[C@@H](O)[C@@H](O)[C@H](CO)NC(=O)CCC` [C4PS, N-butanoyl phytosphingosine], for which the “enhancement of radiosensitizing effect” value in [1] is on record as “excellent”. The “enhancement of radiosensitizing effect” value in test [2] is reported as “excellent”. In test [3], the “tumor size, compound alone treated group” value is listed as “slowly increased”; the “tumor size, radiation and compound concurrent treated group” value was “showed little changes”; the “tumor size, concurrent treatment vs radiation or compound alone” value was “significant reduction in tumor size”. This compound registered an apoptotic rate in test [7] of about 100%.

For `CCCCCCCCCCCCC/C=C/[C@@H](O)[C@@H](N)CO` [sphingosine], the “sensitizer enhancement ratio (SER)” value in the test with human lung cancer cells [5] (FIG. 12) amounted to 1.10.

Source of the values: patent US20090176888A1, “COMPOSITION COMPRISING PHYTOSPHINGOSINE OR DERIVATIVE THEREOF” (KOREA INSTITUTE OF RADIOLOGICAL & MEDICAL SCIENCES, priority 2003, published 2009).
